# Assay results: patent US20120255051A1, “HERBICIDE TOLERANT PLANTS” (priority 2009, published 2012)
# Several values for one entry are separate records, joined by “and”; a condition that tells them apart may be missing. Equal values may be shown once.
# System: Brassica plants comprising mutant AHAS alleles
# Assay: Field trial, pre-planting treatment (0, 10, 20, 30 g a.i./ha), two locations in Canada: ERG, EST1, EST2, PPTOX, VIG1, VIG2, VIG3 scores
# Format: in vivo, Brassica napus
# Description: Tests were set up and conducted to asses the growth and performance of plants comprising AHAS full knock-out alleles, and to further analyze the correlation between the presence of full knockout and missense AHAS genes in Brassica plants and plant growth and herbicide tolerance of the Brassica plants in the field. To this end, the Brassica plants identified in Example 1 and 2 were backcrossed two times with an elite parent line, and subsequently selfed twice to obtain homozygous plants (BC2S2). Plants were grown as row plots in a split plot design with three replicates (main plots=herbicide treatments, subplots=genotypes) at two locations in Canada. Treatment pre-planting was carried out on the soil about two days before sowing with a dose of 0 (treatment A), 10 (treatment B), 20 (treatment C) or 30 (treatment D) g a.i./ha of thiencarbazone methyl. Herbicide tolerance was measured by scoring for different parameters. The parameter emergence (ERG) was scored at the cotyledon stage on a scale 1-9, where 1 means late emergence and 9 means early emergence. Establishment was scored 14 days after sowing (EST1) and 21 days after sowing (EST2). Scores were from 1 to 9, where 1 is the worst establishment (least plants that emerged), and 9 is the best establishment (most plants emerged). Phytotoxicity (PPTOX) was determined after establishment. Plants were evaluated on a scale of 1 to 9, where 1=completely yellowing, 5=50% of plant is yellow and 9=no yellowing. The vigor scores (see above) were determined at 1-2 leaf stage (VIG1), 7 days after VIG1 (VIG2) and 14 days after VIG1 (VIG3). The average values (Av) and standard deviations (SD) of the scores for the different parameters are represented in Table 7a-g.
# Further, the contribution of the knock-out allele to herbicide tolerance conferred by the missense allele was calculated. First, the scores were corrected for a possible effect of the growth per se, independent of herbicide treatment. To this end, the scores for treatments B, C and D were divided by the scores for treatment A for the same genotype and for the same parameter (corrected herbicide tolerance scores). Next, the effect of the knock-out allele to these corrected herbicide tolerance scores obtained by the missense allele was calculated. Therefore, the corrected herbicide tolerance scores for the missense—knock-out allele combination was divided by the corrected herbicide tolerance scores for the missense allele—wild-type combination. In case the knock-out allele has no effect on herbicide tolerance conferred by the missense allele, this ratio should be 1. In case the knock-out allele positively contributes to the herbicide tolerance conferred by the missense allele, this ratio should be higher than 1. The results for the contribution of the knock-out allele to herbicide tolerance conferred by the missense allele as calculated above are shown in table 8.
# [1] = Location B, treatment D 30 g a.i./ha pre-planting, ratio >1 = positive contribution
compound,measurement,setting,value
"COC(=O)c1csc(C)c1S(=O)(=O)NC(=O)n1nc(OC)n(C)c1=O [thiencarbazone-methyl, methyl 4-[(4,5-dihydro-3-methoxy-4-methyl-5-oxo-1H-1,2,4-triazol-1-yl)carbonylsulfamoyl]-5-methylthiophene-3-carboxylate]",relative contribution of HETO104 (AHAS3 KO) to herbicide tolerance conferred by HETO108 (AHAS1 missense): EST2,[1],0.95
same,relative contribution of HETO104 (AHAS3 KO) to herbicide tolerance conferred by HETO108 (AHAS1 missense): PPTOX,[1],1.44
same,relative contribution of HETO104 (AHAS3 KO) to herbicide tolerance conferred by HETO108 (AHAS1 missense): VIG1,[1],1.40
same,relative contribution of HETO104 (AHAS3 KO) to herbicide tolerance conferred by HETO108 (AHAS1 missense): VIG2,[1],1.38
same,relative contribution of HETO104 (AHAS3 KO) to herbicide tolerance conferred by HETO108 (AHAS1 missense): VIG3,[1],1.34
same,relative contribution of HETO112 (AHAS1 KO) to herbicide tolerance conferred by HETO111 (AHAS3 missense): ERG,[1],0.88
same,relative contribution of HETO112 (AHAS1 KO) to herbicide tolerance conferred by HETO111 (AHAS3 missense): EST1,[1],0.97
same,relative contribution of HETO112 (AHAS1 KO) to herbicide tolerance conferred by HETO111 (AHAS3 missense): EST2,[1],0.92
same,relative contribution of HETO112 (AHAS1 KO) to herbicide tolerance conferred by HETO111 (AHAS3 missense): PPTOX,[1],0.76
same,relative contribution of HETO112 (AHAS1 KO) to herbicide tolerance conferred by HETO111 (AHAS3 missense): VIG1,[1],0.75
same,relative contribution of HETO112 (AHAS1 KO) to herbicide tolerance conferred by HETO111 (AHAS3 missense): VIG2,[1],1.07
same,relative contribution of HETO112 (AHAS1 KO) to herbicide tolerance conferred by HETO111 (AHAS3 missense): VIG3,[1],1.11
same,"vigor3 (VIG3) score, Av","plants AHAS1 HETO108 / AHAS3 HETO104, 10 g a.i./ha (treatment B) pre-planting, Location A",8.00
same,"vigor3 (VIG3) score, Av","plants AHAS1 HETO108 / AHAS3 HETO104, 10 g a.i./ha (treatment B) pre-planting, Location B",5.33
same,"vigor3 (VIG3) score, Av","plants AHAS1 HETO108 / AHAS3 HETO104, 20 g a.i./ha (treatment C) pre-planting, Location A",6.67
same,"vigor3 (VIG3) score, Av","plants AHAS1 HETO108 / AHAS3 HETO104, 20 g a.i./ha (treatment C) pre-planting, Location B",6.67
same,"vigor3 (VIG3) score, Av","plants AHAS1 HETO108 / AHAS3 HETO104, 30 g a.i./ha (treatment D) pre-planting, Location A",6.67
same,"vigor3 (VIG3) score, Av","plants AHAS1 HETO108 / AHAS3 HETO104, 30 g a.i./ha (treatment D) pre-planting, Location B",6.00
same,"vigor3 (VIG3) score, Av","plants AHAS1 HETO108 / AHAS3 HETO111, 10 g a.i./ha (treatment B) pre-planting, Location A",8.33
same,"vigor3 (VIG3) score, Av","plants AHAS1 HETO108 / AHAS3 HETO111, 10 g a.i./ha (treatment B) pre-planting, Location B",7.67
same,"vigor3 (VIG3) score, Av","plants AHAS1 HETO108 / AHAS3 HETO111, 20 g a.i./ha (treatment C) pre-planting, Location A",7.00
same,"vigor3 (VIG3) score, Av","plants AHAS1 HETO108 / AHAS3 HETO111, 20 g a.i./ha (treatment C) pre-planting, Location B",6.67
same,"vigor3 (VIG3) score, Av","plants AHAS1 HETO108 / AHAS3 HETO111, 30 g a.i./ha (treatment D) pre-planting, Location A",8.00
same,"vigor3 (VIG3) score, Av","plants AHAS1 HETO108 / AHAS3 HETO111, 30 g a.i./ha (treatment D) pre-planting, Location B",4.33
same,"vigor3 (VIG3) score, Av","plants AHAS1 HETO108 / AHAS3 WT, 10 g a.i./ha (treatment B) pre-planting, Location A",8.33 and 7.67
same,"vigor3 (VIG3) score, Av","plants AHAS1 HETO108 / AHAS3 WT, 10 g a.i./ha (treatment B) pre-planting, Location B",5.33 and 6.00
same,"vigor3 (VIG3) score, Av","plants AHAS1 HETO108 / AHAS3 WT, 20 g a.i./ha (treatment C) pre-planting, Location A",7.33 and 7.00
same,"vigor3 (VIG3) score, Av","plants AHAS1 HETO108 / AHAS3 WT, 20 g a.i./ha (treatment C) pre-planting, Location B",6.33 and 8.00
same,"vigor3 (VIG3) score, Av","plants AHAS1 HETO108 / AHAS3 WT, 30 g a.i./ha (treatment D) pre-planting, Location A",7.00 and 7.33
same,"vigor3 (VIG3) score, Av","plants AHAS1 HETO108 / AHAS3 WT, 30 g a.i./ha (treatment D) pre-planting, Location B",5.33
same,"vigor3 (VIG3) score, Av","plants AHAS1 HETO112 / AHAS3 HETO111, 10 g a.i./ha (treatment B) pre-planting, Location A",8.00
same,"vigor3 (VIG3) score, Av","plants AHAS1 HETO112 / AHAS3 HETO111, 10 g a.i./ha (treatment B) pre-planting, Location B",7.33
same,"vigor3 (VIG3) score, Av","plants AHAS1 HETO112 / AHAS3 HETO111, 20 g a.i./ha (treatment C) pre-planting, Location A",7.00
same,"vigor3 (VIG3) score, Av","plants AHAS1 HETO112 / AHAS3 HETO111, 20 g a.i./ha (treatment C) pre-planting, Location B",5.67
same,"vigor3 (VIG3) score, Av","plants AHAS1 HETO112 / AHAS3 HETO111, 30 g a.i./ha (treatment D) pre-planting, Location A",7.67
same,"vigor3 (VIG3) score, Av","plants AHAS1 HETO112 / AHAS3 HETO111, 30 g a.i./ha (treatment D) pre-planting, Location B",5.67
same,"vigor3 (VIG3) score, Av","plants AHAS1 HETO112 / AHAS3 WT, 10 g a.i./ha (treatment B) pre-planting, Location A",1.00
same,"vigor3 (VIG3) score, Av","plants AHAS1 HETO112 / AHAS3 WT, 10 g a.i./ha (treatment B) pre-planting, Location B",1.00
same,"vigor3 (VIG3) score, Av","plants AHAS1 HETO112 / AHAS3 WT, 20 g a.i./ha (treatment C) pre-planting, Location A",1.00
same,"vigor3 (VIG3) score, Av","plants AHAS1 HETO112 / AHAS3 WT, 20 g a.i./ha (treatment C) pre-planting, Location B",1.00
same,"vigor3 (VIG3) score, Av","plants AHAS1 HETO112 / AHAS3 WT, 30 g a.i./ha (treatment D) pre-planting, Location A",1.00
same,"vigor3 (VIG3) score, Av","plants AHAS1 HETO112 / AHAS3 WT, 30 g a.i./ha (treatment D) pre-planting, Location B",1.00
same,"vigor3 (VIG3) score, Av","plants AHAS1 WT / AHAS3 HETO104, 10 g a.i./ha (treatment B) pre-planting, Location A",1.00
same,"vigor3 (VIG3) score, Av","plants AHAS1 WT / AHAS3 HETO104, 10 g a.i./ha (treatment B) pre-planting, Location B",1.00
same,"vigor3 (VIG3) score, Av","plants AHAS1 WT / AHAS3 HETO104, 20 g a.i./ha (treatment C) pre-planting, Location A",1.00
same,"vigor3 (VIG3) score, Av","plants AHAS1 WT / AHAS3 HETO104, 20 g a.i./ha (treatment C) pre-planting, Location B",1.00
same,"vigor3 (VIG3) score, Av","plants AHAS1 WT / AHAS3 HETO104, 30 g a.i./ha (treatment D) pre-planting, Location A",1.00
same,"vigor3 (VIG3) score, Av","plants AHAS1 WT / AHAS3 HETO104, 30 g a.i./ha (treatment D) pre-planting, Location B",1.00
same,"vigor3 (VIG3) score, Av","plants AHAS1 WT / AHAS3 HETO111, 10 g a.i./ha (treatment B) pre-planting, Location A",7.67 and 7.00
same,"vigor3 (VIG3) score, Av","plants AHAS1 WT / AHAS3 HETO111, 10 g a.i./ha (treatment B) pre-planting, Location B",7.33
same,"vigor3 (VIG3) score, Av","plants AHAS1 WT / AHAS3 HETO111, 20 g a.i./ha (treatment C) pre-planting, Location A",6.67
same,"vigor3 (VIG3) score, Av","plants AHAS1 WT / AHAS3 HETO111, 20 g a.i./ha (treatment C) pre-planting, Location B",6.00
same,"vigor3 (VIG3) score, Av","plants AHAS1 WT / AHAS3 HETO111, 30 g a.i./ha (treatment D) pre-planting, Location A",6.67 and 6.33
same,"vigor3 (VIG3) score, Av","plants AHAS1 WT / AHAS3 HETO111, 30 g a.i./ha (treatment D) pre-planting, Location B",4.67 and 5.33
same,"vigor3 (VIG3) score, Av","plants AHAS1 WT / AHAS3 WT, 10 g a.i./ha (treatment B) pre-planting, Location A",1.00
same,"vigor3 (VIG3) score, Av","plants AHAS1 WT / AHAS3 WT, 10 g a.i./ha (treatment B) pre-planting, Location B",1.33
same,"vigor3 (VIG3) score, Av","plants AHAS1 WT / AHAS3 WT, 20 g a.i./ha (treatment C) pre-planting, Location A",1.00
same,"vigor3 (VIG3) score, Av","plants AHAS1 WT / AHAS3 WT, 20 g a.i./ha (treatment C) pre-planting, Location B",1.00
same,"vigor3 (VIG3) score, Av","plants AHAS1 WT / AHAS3 WT, 30 g a.i./ha (treatment D) pre-planting, Location A",1.00
same,"vigor3 (VIG3) score, Av","plants AHAS1 WT / AHAS3 WT, 30 g a.i./ha (treatment D) pre-planting, Location B",1.00
